This note sets out measurements from ChEMBL document CHEMBL1949643, “Dactylomelatriol, a biogenetically intriguing omphalane-derived marine sesquiterpene” (2012).

In experiment [1] the test system is Bacillus cereus. The experiment can be described thus: Antimicrobial activity against Bacillus cereus ATCC 21772 by broth macrodilution method. In kind it is functional.
The test system of experiment [2] is Candida albicans. The experiment can be described thus: Antifungal activity against Candida albicans SC5314 by broth macrodilution method. In kind it is functional.

Consider `C=C1C[C@H](O)[C@H](Br)C(C)(C)[C@@]12CCC(C)=C(Cl)C2` [ELATOL], for which the minimal inhibitory concentration (MIC) (commonly the smallest concentration in the dilution series that meets the test's criterion for growth inhibition) in experiment [1] was greater than 50 µg/mL.

In the case of `C=C1C[C@@H](O)[C@@H](Br)C(C)(C)[C@]12CC[C@@](C)(Br)[C@H](Cl)C2` [OBTUSOL], the minimum inhibitory concentration (MIC) in experiment [2] and in experiment [1] was greater than 50 µg/mL throughout.
